Results: PubChem BioAssay AID1259407 (Chemical Carcinogenesis Research Information System (CCRIS), 2018)
The source made the active and inactive calls. How the calls were made is not given here.

System: CCRIS mutagenicity, Ames/micronucleus/aberration tests
Experiment: CCRIS mutagenicity studies
[1] = Test System: AMES SALMONELLA TYPHIMURIUM, Strain/Indicator: TA98, Metabolic Activation: HAMSTER, LIVER, S-9, AROCLOR 1254 (10%), Method: PREINCUBATION
[2] = Test System: AMES SALMONELLA TYPHIMURIUM, Strain/Indicator: TA98, Metabolic Activation: NONE, Method: PREINCUBATION
[3] = Test System: AMES SALMONELLA TYPHIMURIUM, Strain/Indicator: TA98, Metabolic Activation: RAT, LIVER, S-9, AROCLOR 1254 (10%), Method: PREINCUBATION
[4] = Test System: AMES SALMONELLA TYPHIMURIUM, Strain/Indicator: TA100, Metabolic Activation: HAMSTER, LIVER, S-9, AROCLOR 1254 (10%), Method: PREINCUBATION
[5] = Test System: AMES SALMONELLA TYPHIMURIUM, Strain/Indicator: TA100, Metabolic Activation: NONE, Method: PREINCUBATION
[6] = Test System: AMES SALMONELLA TYPHIMURIUM, Strain/Indicator: TA100, Metabolic Activation: RAT, LIVER, S-9, AROCLOR 1254 (10%), Method: PREINCUBATION
[7] = Test System: AMES SALMONELLA TYPHIMURIUM, Strain/Indicator: TA1535, Metabolic Activation: HAMSTER, LIVER, S-9, AROCLOR 1254 (10%), Method: PREINCUBATION
[8] = Test System: AMES SALMONELLA TYPHIMURIUM, Strain/Indicator: TA1535, Metabolic Activation: NONE, Method: PREINCUBATION
[9] = Test System: AMES SALMONELLA TYPHIMURIUM, Strain/Indicator: TA1535, Metabolic Activation: RAT, LIVER, S-9, AROCLOR 1254 (10%), Method: PREINCUBATION
[10] = Test System: AMES SALMONELLA TYPHIMURIUM, Strain/Indicator: TA1538, Metabolic Activation: RAT, LIVER, S-9, AROCLOR 1254, Method: STANDARD PLATE
[11] = Test System: AMES SALMONELLA TYPHIMURIUM, Strain/Indicator: TA98, Metabolic Activation: NONE, Method: STANDARD PLATE
[12] = Test System: AMES SALMONELLA TYPHIMURIUM, Strain/Indicator: TA98, Metabolic Activation: RAT, LIVER, S-9, AROCLOR 1254, Method: STANDARD PLATE
[13] = Test System: AMES SALMONELLA TYPHIMURIUM, Strain/Indicator: TA100, Metabolic Activation: NONE, Method: STANDARD PLATE
[14] = Test System: AMES SALMONELLA TYPHIMURIUM, Strain/Indicator: TA100, Metabolic Activation: RAT, LIVER, S-9, AROCLOR 1254, Method: STANDARD PLATE

Measured: mutagenic call

Cc1ccc(N)c(N)c1
inactive: Test System: AMES SALMONELLA TYPHIMURIUM, Strain/Indicator: TA97, Metabolic Activation: HAMSTER, LIVER, S-9, AROCLOR 1254 (10%), Method: PREINCUBATION inactive; negative | Test System: AMES SALMONELLA TYPHIMURIUM, Strain/Indicator: TA97, Metabolic Activation: NONE, Method: PREINCUBATION inactive; negative | [2] inactive; negative | [5] inactive; negative | [7] inactive; negative | [8] inactive; negative | [9] inactive; negative
active: Test System: AMES SALMONELLA TYPHIMURIUM, Strain/Indicator: TA97, Metabolic Activation: RAT, LIVER, S-9, AROCLOR 1254 (10%), Method: PREINCUBATION active; positive | [1] active; positive | [3] active; positive | [4] active; positive | [6] active; positive

Cc1c[nH]c2ccccc12
inactive: [5] inactive; negative | Test System: AMES SALMONELLA TYPHIMURIUM, Strain/Indicator: TA100, Metabolic Activation: RAT LIVER S-9, PHENOBARBITOL/BETA-NAPHTHOFLAVONE, Method: PREINCUBATION inactive; negative

CCOc1ccc(N=Nc2ccc(-c3ccc(N=Nc4c(O)ccc5cc(S(=O)(=O)O)cc(S(=O)(=O)O)c45)c(C)c3)cc2C)cc1
inactive: [1] inactive; negative | [2] inactive; negative | [3] inactive; negative | [4] inactive; negative | [5] inactive; negative | [6] inactive; negative | [7] inactive; negative | [8] inactive; negative | [9] inactive; negative | Test System: AMES SALMONELLA TYPHIMURIUM, Strain/Indicator: TA1537, Metabolic Activation: HAMSTER, LIVER, S-9, AROCLOR 1254 (10%), Method: PREINCUBATION inactive; negative | Test System: AMES SALMONELLA TYPHIMURIUM, Strain/Indicator: TA1537, Metabolic Activation: NONE, Method: PREINCUBATION inactive; negative | Test System: AMES SALMONELLA TYPHIMURIUM, Strain/Indicator: TA1537, Metabolic Activation: RAT, LIVER, S-9, AROCLOR 1254 (10%), Method: PREINCUBATION inactive; negative
active: [10] active; positive

O=[N+]([O-])c1ccccc1SSC(F)=C(Cl)Cl
active: Test System: AMES SALMONELLA TYPHIMURIUM, Strain/Indicator: TA100(DNP6), Metabolic Activation: NONE, Method: PREINCUBATION active; positive | Test System: AMES SALMONELLA TYPHIMURIUM, Strain/Indicator: TA100(NR), Metabolic Activation: NONE, Method: PREINCUBATION active; positive

Cc1ccc(N)c([N+](=O)[O-])c1
inactive: [2] inactive; negative | Test System: AMES SALMONELLA TYPHIMURIUM, Strain/Indicator: TA98, Metabolic Activation: RAT, LIVER, S-9, KANECHLOR 500, Method: PREINCUBATION inactive; negative | [5] inactive; negative | Test System: AMES SALMONELLA TYPHIMURIUM, Strain/Indicator: TA100, Metabolic Activation: RAT, LIVER, S-9, KANECHLOR 500, Method: PREINCUBATION inactive; negative | Test System: UDS RODENT HEPATOCYTES, Strain/Indicator: THY INCORP (NON-S-PHASE), Metabolic Activation: NONE, Method: AUTORADIOGRAPHY inactive; negative

Cc1cc(=O)c2c(O)c3c(O)cc(O)c4c5c(O)cc(O)c6c(O)c7c(=O)cc(C)c8c1c2c(c34)c(c65)c78
inactive: [11] inactive; negative | [12] inactive; negative | [13] inactive; negative | [14] inactive; negative

N#C[S-].N#C[S-].N#C[S-].N#C[S-].N#C[S-].N#C[S-].[K+].[K+].[Pt+4]
inactive: [2] inactive; negative | Test System: AMES SALMONELLA TYPHIMURIUM, Strain/Indicator: TA98, Metabolic Activation: RAT, LIVER, S-9, AROCLOR 1254, Method: PREINCUBATION inactive; negative | [5] inactive; negative | Test System: AMES SALMONELLA TYPHIMURIUM, Strain/Indicator: TA100, Metabolic Activation: RAT, LIVER, S-9, AROCLOR 1254, Method: PREINCUBATION inactive; negative

O=[N+]([O-])c1c(O)cc2c3c(cccc13)-c1ccccc1-2
active: [11] active; positive | [12] active; positive

c1cc2ccc3ccc4ccc5cccc6c(c1)c2c3c4c56
active: Test System: AMES SALMONELLA TYPHIMURIUM, Strain/Indicator: TA97, Metabolic Activation: RAT, LIVER, S-9, PCB, Method: STANDARD PLATE active; positive | Test System: AMES SALMONELLA TYPHIMURIUM, Strain/Indicator: TA98, Metabolic Activation: RAT, LIVER, S-9, AROCLOR 1254, Method: FLUCTUATION active; positive | [12] active; positive | Test System: AMES SALMONELLA TYPHIMURIUM, Strain/Indicator: TA98, Metabolic Activation: RAT, LIVER, S-9, PCB, Method: STANDARD PLATE active; positive | [14] active; positive | Test System: AMES SALMONELLA TYPHIMURIUM, Strain/Indicator: TA1537, Metabolic Activation: RAT, LIVER, S-9, AROCLOR 1254, Method: STANDARD PLATE active; positive | Test System: AMES SALMONELLA TYPHIMURIUM, Strain/Indicator: TA1538, Metabolic Activation: RAT, LIVER, S-9, AROCLOR 1254, Method: FLUCTUATION active; positive | [10] active; positive | Test System: AMES SALMONELLA TYPHIMURIUM, Strain/Indicator: TA1538, Metabolic Activation: RAT, LIVER, S-9, PHENOBARBITAL, Method: STANDARD PLATE active; positive
inactive: Test System: AMES SALMONELLA TYPHIMURIUM, Strain/Indicator: TA97, Metabolic Activation: NONE, Method: STANDARD PLATE inactive; negative | [11] inactive; negative | [13] inactive; negative | Test System: AMES SALMONELLA TYPHIMURIUM, Strain/Indicator: TA100, Metabolic Activation: RAT, LIVER, S-9, PCB, Method: STANDARD PLATE inactive; negative
